Assay results from patent US5804576A, “Derivatives of 5-androsten-17-ones and 5-androstan-17-ones” (Research Corporation Technologies, Inc., priority 1986, dated 1998).
Where “and” joins values, the source holds several entries; their conditions need not be identical. Equal values may be shown once. Entries after “also recorded” stand apart in the source; their conditions may differ. Read-outs that look alike come from different tables or passages of the source.

Key:
[1] = test system: DMBA-initiated and TPA-promoted skin papilloma formation in mice; conditions: mouse, in vivo; cited from earlier work
[2] = Anti-obesity test (body weight, food consumption); type: in vivo, mouse (male A/J); conditions: for mean weekly weight / mean weekly weight ± S.D.: n = 5; for mean weekly weight ± S.D.: 0.36% of diet; for weekly weight (Table 13): 0.54% in food
In short: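 Male A/J mice, 5 weeks old on arrival, housed 5 per cage at 24 °C on a 12 h light/dark cycle, were given steroid in chow from one week after arrival; dietary concentrations were varied, or 0.54% or 0.36%. Body weight and food consumption (food added minus remaining) were recorded weekly.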

[3] = test system: TPA (Tumor Promoter) Stimulation of Mouse Epidermal DNA; assay: Inhibition of TPA stimulation of mouse epidermal DNA synthesis (3H-thymidine incorporation), oral; type: in vivo, mouse (ICR male)
In short: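 Shaved male ICR mice (7-9 weeks) got steroid orally in sesame oil (0.5 ml/mouse), then topical TPA (10 μg in acetone) 1 h later. After 20 h, i.p. 60 μCi ³H-thymidine 20 min before sacrifice; epidermal DNA labelling expressed as cpm per μg DNA (diphenylamine assay).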

[4] = biological target: T1, purified bovine adrenal G6PDH (Bos taurus, UniProt F1MMK2); assay: Inhibition of purified bovine adrenal G6PDH; type: biochemical; conditions: for inhibition at 0.1 µM: Conc. 0.1 μm; for inhibition at 0.1 µM / inhibition at 1 µM / inhibition at 10 µM: read-out: Percent Inhibition (G6PDH)
T1 construct: full-length, wild type, no tag
T1 sequence (F1MMK2 31-70): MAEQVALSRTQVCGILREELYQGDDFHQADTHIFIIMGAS
T1 sequence (F1MMK2 101-575): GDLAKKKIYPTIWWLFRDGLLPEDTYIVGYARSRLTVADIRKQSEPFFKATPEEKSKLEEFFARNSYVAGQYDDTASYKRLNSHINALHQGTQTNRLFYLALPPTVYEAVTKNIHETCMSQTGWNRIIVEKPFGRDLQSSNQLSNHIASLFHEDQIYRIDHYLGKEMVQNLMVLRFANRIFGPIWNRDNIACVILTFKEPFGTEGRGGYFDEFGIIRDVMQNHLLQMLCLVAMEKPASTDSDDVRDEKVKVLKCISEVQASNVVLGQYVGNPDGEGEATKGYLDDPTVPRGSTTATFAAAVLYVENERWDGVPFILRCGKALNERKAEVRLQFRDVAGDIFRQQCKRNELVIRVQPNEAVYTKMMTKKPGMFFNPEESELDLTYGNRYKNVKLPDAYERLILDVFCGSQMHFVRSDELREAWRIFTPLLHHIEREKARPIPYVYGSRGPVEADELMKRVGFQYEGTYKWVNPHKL
In short: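 Inhibition of purified bovine adrenal G6PDH enzyme activity, run by the published Oertel and Rebelein (1969) procedure.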

[5] = test system: seminal vesicles plus prostate glands; assay: Androgenic and anti-androgenic activity (seminal vesicle plus prostate weight); type: in vivo, mouse (male A/J); conditions: for Mean Seminal Vesicle plus Prostate Weight ± S.D.: 4 weeks; for androgenic / anti-androgenic effect, seminal vesicle plus prostate weight (in words): diet, male A/J mice
Description: Male A/J mice (5 weeks old) were obtained from the Jackson Laboratory and were housed in polycarbonate cages (5 mice/cage) in animal quarters maintained at 24°±1° C. with 12 hours of light and 12 hours of darkness each day. One week after arrival, mice were placed on a chow diet containing either 0.18% or 0.09% 16 or without steroid. Mice were weighed weekly. After 4 weeks, the mice were killed, and the seminal vesicles plus prostate glands were dissected out and weighed.
(a) Male A/J mice (5 weeks old) were obtained from the Jackson Laboratory and were housed in polycarbonate cages (5 mice/cage) in animal quarters maintained at 24°[…] C. with 12 hours of light and 12 hours of darkness each day. One week after arrival, the mice were placed on a chow diet containing one of the test compounds of the present invention at 0.36%. After 4 weeks of treatment, the above mice were killed, and the seminal vesicles and prostate glands were dissected out and weighed.

C[C@H]1CC[C@@]2(C)C(=CC[C@@H]3[C@@H]2CC[C@]2(C)C(=O)CC[C@@H]32)C1 [Compound 16, 3β-methyl-5-androsten-17-one]
inhibition of DMBA-initiated and TPA-promoted skin papilloma formation (in words) [1]: inhibit | Anti-obesity Activity relative to DHEA [2]: more than 2 X | mean weekly weight ([2]; 0.18% of diet, week 0): 22.6 ± 2.7 grams | mean weekly weight ([2]; 0.18% of diet, week 1): 19.8 ± 2.3 grams | mean weekly weight ([2]; 0.18% of diet, week 2): 19.4 ± 2.1 grams | mean weekly weight ([2]; 0.18% of diet, week 3): 19.4 ± 2.1 grams | mean weekly weight ([2]; 0.18% of diet, week 4): 19.6 ± 2.2 grams | mean weekly weight ([2]; 0.35% of diet, week 0): 22.0 ± 2.5 grams | mean weekly weight ([2]; 0.35% of diet, week 1): 16.8 ± 1.6 grams | mean weekly weight ([2]; 0.35% of diet, week 2): 18.2 ± 0.8 grams | mean weekly weight ([2]; 0.35% of diet, week 3): 17.2 ± 1.7 grams | mean weekly weight ([2]; 0.35% of diet, week 4): 17.0 ± 1.2 grams | mean weekly weight ± S.D. ([2]; week 0): 23.3 ± 2.5 grams | mean weekly weight ± S.D. ([2]; week 1): 18 ± 1.5 grams | mean weekly weight ± S.D. ([2]; week 2): 17.1 ± 1.6 grams | activity relative to DHEA (TPA stimulation of epidermal DNA synthesis) ([3]; oral dose-response, as active as DHEA): about 3 X | inhibition at 0.1 µM [4]: 25% | inhibition at 1 µM ([4]; Conc. 1 μm): 40% | inhibition at 10 µM ([4]; Conc. 10 μm): 53% | Mean Seminal Vesicle plus Prostate Weight ± S.D. ([5]; 0.09% of diet, n = 6): 4.0 ± 0.7 mg/100 gm body weight | Mean Seminal Vesicle plus Prostate Weight ± S.D. ([5]; 0.18% of diet, n = 6): 3.4 ± 0.11 mg/100 gm body weight | Mean Seminal Vesicle plus Prostate Weight ± S.D. ([5]; 0.36% of diet, n = 5): 3.0 ± 0.3 mg/100 gm body weight | androgenic / anti-androgenic effect, seminal vesicle plus prostate weight (in words) [5]: significantly reduced the weight of the seminal vesicles and prostate glands; also recorded: significantly reduced the seminal vesicle plus prostate gland weight | androgenic / anti-androgenic effect, seminal vesicle plus prostate weight (in words) ([5]; listed as Cmpd. 16): significantly reduced seminal vesicle plus prostate weight

C[C@]12CC[C@H](O)CC1=CC[C@@H]1[C@@H]2CC[C@]2(C)C(=O)CC[C@@H]12 [DHEA, 3β-Hydroxy-5-androst-en-17-one, reference compound]
inhibition of DMBA-initiated and TPA-promoted skin papilloma formation (in words) [1]: inhibit | mean weekly weight ([2]; 0.18% of diet, week 0): 22.4 ± 1.8 grams | mean weekly weight ([2]; 0.18% of diet, week 1): 20.4 ± 1.9 grams | mean weekly weight ([2]; 0.18% of diet, week 2): 21.1 ± 0.5 grams | mean weekly weight ([2]; 0.18% of diet, week 3): 22.4 ± 0.8 grams | mean weekly weight ([2]; 0.18% of diet, week 4): 23.6 ± 1.5 grams | mean weekly weight ([2]; 0.35% of diet, week 0): 21.8 ± 2.2 grams and 22.4 ± 2.3 grams | mean weekly weight ([2]; 0.35% of diet, week 1): 20.0 ± 2.3 grams and 16.0 ± 1.6 grams | mean weekly weight ([2]; 0.35% of diet, week 2): 19.2 ± 1.8 grams and 20.2 ± 0.9 grams | mean weekly weight ([2]; 0.35% of diet, week 3): 19.6 ± 2.8 grams and 21.0 ± 0.8 grams | mean weekly weight ([2]; 0.35% of diet, week 4): 22.2 ± 2.4 grams and 22.2 ± 0.9 grams | mean weekly weight ([2]; 0.35% of diet, week 5): 21.8 ± 2.2 grams | mean weekly weight ([2]; 0.35% of diet, week 7): 23.2 ± 2.4 grams | mean weekly weight ± S.D. ([2]; week 0): 23.2 ± 1.3 grams | mean weekly weight ± S.D. ([2]; week 1): 21.8 ± 1.0 grams | mean weekly weight ± S.D. ([2]; week 2): 20.8 ± 1.0 grams | anti-weight effect (in words) ([2]; 400 mg/kg repeated (DHEA), cancer preventive dosages (19, 20)): produces an anti-weight effect | weekly weight (Table 13) ([2]; week 0): 21.2 ± 1.4 | weekly weight (Table 13) ([2]; week 1): 16.8 ± 1.6 | weekly weight (Table 13) ([2]; week 2): 16.7 ± 2.0 | weekly weight (Table 13) ([2]; week 3): 18.8 ± 1.1 | weekly weight (Table 13) ([2]; week 4): 19.0 ± 2.0 | weekly weight (Table 13) ([2]; week 5): 19.6 ± 2.8 | mean weekly weight ([2]; 0.7% of diet, week 0): 21.1 ± 2.8 grams and 22.0 ± 2.5 grams | mean weekly weight ([2]; 0.7% of diet, week 1): 15.2 ± 1.8 grams and 17.0 ± 1.9 grams | mean weekly weight ([2]; 0.7% of diet, week 2): 17.0 ± 2.0 grams and 17.8 ± 1.8 grams | mean weekly weight ([2]; 0.7% of diet, week 3): 17.8 ± 1.1 grams and 18.4 ± 1.8 grams | mean weekly weight ([2]; 0.7% of diet, week 4): 18.8 ± 1.1 grams and 19.2 ± 1.6 grams | mean weekly weight ([2]; 0.7% of diet, week 5): 18.2 ± 1.3 grams and 20.2 ± 1.9 grams | mean weekly weight ([2]; 0.7% of diet, week 6): 19.8 ± 2.0 grams | Anti-obesity Activity relative to DHEA ([2]; Table 14, DHEA = 1×): 1 × | blocking the TPA stimulation in DNA synthesis rate (in words) ([3]; 200 mg/kg or 100 mg/kg oral): not at 200 mg/kg or 100 mg/kg | blocking the TPA stimulation in DNA synthesis rate (in words) ([3]; 400 mg/kg oral): active at blocking the TPA stimulation in DNA synthesis rate at 400 mg/kg | TPA stimulation in 3H-thymidine incorporation (in words) ([3]; oral, single administration): does not inhibit the TPA stimulation in epidermal ^3 H-thymidine incorporation to a degree comparable; also recorded: inactive | inhibition at 0.1 µM [4]: 12% | Percent Inhibition (G6PDH) ([4]; Conc. 1 μm): 17% | inhibition at 1 µM ([4]; Conc. 1 μm): 36% | Percent Inhibition (G6PDH) ([4]; Conc. 10 μm): 57% | Percent Inhibition (G6PDH) ([4]; Conc. 10 μm, listed as 1): 53% | inhibition at 10 µM ([4]; Conc. 10 μm): 51% | Mean Seminal Vesicle plus Prostate Weight ± S.D. ([5]; 0.36% of diet, n = 5): 6.5 ± 1.2 mg/100 gm body weight | androgenic / anti-androgenic effect, seminal vesicle plus prostate weight (in words) [5]: significantly reduced seminal vesical plus prostate gland weight
